Assay results published in ChEMBL document CHEMBL1148888, “Synthesis and antibacterial activity of 5-deoxy-5-episubstituted arbekacin derivatives” (2007).
Values after ≈ are worked out from the molar mass of the structure shown.

Legend:
Format in all cases: functional
Staphylococcus aureus [1] = assay: Antibacterial activity against Staphylococcus aureus 209P JC1 by agar dilution method
Staphylococcus aureus [2] = assay: Antibacterial activity against methicillin-resistant Staphylococcus aureus MSC03571 by agar dilution method
Escherichia coli = assay: Antibacterial activity against Escherichia coli NIH JC2 by agar dilution method
Pseudomonas aeruginosa [3] = assay: Antibacterial activity against Pseudomonas aeruginosa GN315 by agar dilution method
Pseudomonas aeruginosa [4] = assay: Antibacterial activity against Pseudomonas aeruginosa PAO1 by agar dilution method
Staphylococcus aureus [5] = assay: Antibacterial activity against methicillin-resistant Staphylococcus aureus MF490 by agar dilution method
Pseudomonas aeruginosa [6] = assay: Antibacterial activity against Pseudomonas aeruginosa N101 by agar dilution method
Staphylococcus aureus [7] = assay: Antibacterial activity against methicillin-resistant Staphylococcus aureus by agar dilution method
[8] = Staphylococcus aureus, 209P JC1, read-out: MIC
[9] = Staphylococcus aureus, read-out: MIC
[10] = Escherichia coli, NIH JC2, read-out: MIC
[11] = Pseudomonas aeruginosa, read-out: MIC
[12] = Pseudomonas aeruginosa, PAO1, read-out: MIC
[13] = Staphylococcus aureus, read-out: MIC50
[14] = Staphylococcus aureus, read-out: MIC90

Row | SMILES | MIC (Staphylococcus aureus [1]; [8]) | MIC (Staphylococcus aureus [2]; [9]) | MIC (Escherichia coli; [10]) | MIC (Pseudomonas aeruginosa [3]; [11]) | MIC (Pseudomonas aeruginosa [4]; [12]) | MIC (Staphylococcus aureus [5]; [9]) | MIC (Pseudomonas aeruginosa [6]; [11]) | MIC50 (Staphylococcus aureus [7]; [13]) | MIC90 (Staphylococcus aureus [7]; [14]) | MIC (Staphylococcus aureus [2]) | MIC (Staphylococcus aureus [5]) | MIC (Staphylococcus aureus [1]) | MIC (Escherichia coli) | MIC (Pseudomonas aeruginosa [3]) | MIC50 (Staphylococcus aureus [7]) | MIC90 (Staphylococcus aureus [7]) | MIC (Pseudomonas aeruginosa [6]) | MIC (Pseudomonas aeruginosa [4])
1 | CN[C@@H]1[C@@H](O)[C@@H](O[C@@H]2[C@H](O)[C@H](O[C@H]3O[C@H](CN)CC[C@H]3N)[C@@H](N)C[C@H]2NC(=O)[C@@H](O)CCN)O[C@H](CO)[C@H]1O | 0.13 µg/mL (≈ 0.229 µM) | 16 µg/mL (≈ 28.2 µM) | 2 µg/mL (≈ 3.53 µM) | 32 µg/mL (≈ 56.5 µM) | 2 µg/mL (≈ 3.53 µM) | 4 µg/mL (≈ 7.06 µM) | – | – | – | – | – | – | – | – | – | – | – | –
2 | NCC[C@H](O)C(=O)N[C@@H]1C[C@H](N)[C@@H](O[C@H]2O[C@H](CN)CC[C@H]2N)[C@@H](Cl)[C@H]1O[C@H]1O[C@H](CO)[C@@H](O)[C@H](N)[C@H]1O | 0.1 µg/mL (≈ 0.175 µM) | 6.25 µg/mL (≈ 10.9 µM) | 1.56 µg/mL (≈ 2.73 µM) | 50 µg/mL (≈ 87.6 µM) | 2 µg/mL (≈ 3.5 µM) | 3.13 µg/mL (≈ 5.48 µM) | 0.5 µg/mL (≈ 0.876 µM) | – | – | – | – | – | – | – | – | – | – | –
3 | NCC[C@H](O)C(=O)N[C@@H]1C[C@H](N)[C@@H](O[C@H]2O[C@H](CN)CC[C@H]2N)[C@@H](N)[C@H]1O[C@H]1O[C@H](CO)[C@@H](O)[C@H](N)[C@H]1O | 0.13 µg/mL (≈ 0.236 µM) | 4 µg/mL (≈ 7.25 µM) | 2 µg/mL (≈ 3.63 µM) | 16 µg/mL (≈ 29 µM) | 2 µg/mL (≈ 3.63 µM) | 2 µg/mL (≈ 3.63 µM) | 0.5 µg/mL (≈ 0.906 µM) | 0.5 µg/mL (≈ 0.906 µM) | 0.5 µg/mL (≈ 0.906 µM) | – | – | – | – | – | – | – | – | –
4 | NCC[C@H](O)C(=O)N[C@@H]1C[C@H](N)[C@@H](O[C@H]2O[C@H](CN)CC[C@H]2N)[C@@H](NCc2ccccc2)[C@H]1O[C@H]1O[C@H](CO)[C@@H](O)[C@H](N)[C@H]1O | 0.13 µg/mL (≈ 0.203 µM) | 32 µg/mL (≈ 49.9 µM) | 4 µg/mL (≈ 6.23 µM) | 128 µg/mL (≈ 199 µM) | 32 µg/mL (≈ 49.9 µM) | 8 µg/mL (≈ 12.5 µM) | 1 µg/mL (≈ 1.56 µM) | – | – | – | – | – | – | – | – | – | – | –
5 | NCCN[C@H]1[C@@H](O[C@H]2O[C@H](CO)[C@@H](O)[C@H](N)[C@H]2O)[C@H](NC(=O)[C@@H](O)CCN)C[C@H](N)[C@H]1O[C@H]1O[C@H](CN)CC[C@H]1N | 0.13 µg/mL (≈ 0.219 µM) | 4 µg/mL (≈ 6.73 µM) | 4 µg/mL (≈ 6.73 µM) | 64 µg/mL (≈ 108 µM) | 2 µg/mL (≈ 3.36 µM) | 2 µg/mL (≈ 3.36 µM) | – | – | – | – | – | – | – | – | – | – | – | –
6 | CN[C@H]1[C@@H](O[C@H]2O[C@H](CO)[C@@H](O)[C@H](N)[C@H]2O)[C@H](NC(=O)[C@@H](O)CCN)C[C@H](N)[C@H]1O[C@H]1O[C@H](CN)CC[C@H]1N | 0.25 µg/mL (≈ 0.442 µM) | 16 µg/mL (≈ 28.3 µM) | 2 µg/mL (≈ 3.54 µM) | 128 µg/mL (≈ 226 µM) | 4 µg/mL (≈ 7.07 µM) | 4 µg/mL (≈ 7.07 µM) | – | – | – | – | – | – | – | – | – | – | – | –
7 | CN(C)[C@H]1[C@@H](O[C@H]2O[C@H](CO)[C@@H](O)[C@H](N)[C@H]2O)[C@H](NC(=O)[C@@H](O)CCN)C[C@H](N)[C@H]1O[C@H]1O[C@H](CN)CC[C@H]1N | 1 µg/mL (≈ 1.73 µM) | > 64 µg/mL | 16 µg/mL (≈ 27.6 µM) | > 32 µg/mL | 32 µg/mL (≈ 55.2 µM) | 32 µg/mL (≈ 55.2 µM) | – | – | – | – | – | – | – | – | – | – | – | –
8 | NCC[C@H](O)C(=O)N[C@@H]1C[C@H](N)[C@@H](O[C@H]2O[C@H](CN)CC[C@H]2N)C(O)[C@H]1O[C@H]1O[C@H](CO)[C@@H](O)[C@H](N)[C@H]1O (single isomer, unassigned; form 1) [ARBEKACIN] | 0.06 µg/mL (≈ 0.109 µM) | – | 1 µg/mL (≈ 1.81 µM) | 8 µg/mL (≈ 14.5 µM) | 2 µg/mL (≈ 3.62 µM) | – | 0.25 µg/mL (≈ 0.452 µM) | 0.5 µg/mL (≈ 0.905 µM) | 1 µg/mL (≈ 1.81 µM) | 2 µg/mL (≈ 3.62 µM) | 2 µg/mL (≈ 3.62 µM) | – | – | – | – | – | – | –
9 | NCC[C@H](O)C(=O)N[C@@H]1C[C@H](N)[C@@H](O[C@H]2O[C@H](CN)CC[C@H]2N)C(O)[C@H]1O[C@H]1O[C@H](CO)[C@@H](O)[C@H](N)[C@H]1O (single isomer, unassigned; form 2) [ARBEKACIN] | – | – | – | – | – | – | – | – | – | 16 µg/mL (≈ 29 µM) | 64 µg/mL (≈ 116 µM) | 0.06 µg/mL (≈ 0.109 µM) | 1 µg/mL (≈ 1.81 µM) | 16 µg/mL (≈ 29 µM) | 1 µg/mL (≈ 1.81 µM) | 2 µg/mL (≈ 3.62 µM) | 0.25 µg/mL (≈ 0.452 µM) | 2 µg/mL (≈ 3.62 µM)
